Test results reported in ChEMBL document CHEMBL1201862, “PubChem BioAssay data set” (2004).
Counter-ions that a name gives are not always drawn. The source made the active and inactive calls.

What was measured:
[1] = Luminescence Cell-Based Dose Response to Identify Activators of 5'UTR Stem-Loop Driven Prion Protein mRNA Translation in H4-C Neuroglioblastoma Cells. [Related pubchem assays: 1829 (Project Summary), 1814 (Primary HTS)]; format: functional
[2] = Luminescence Cell-Based Dose Response HTS to Identify Activators of Luciferase Translation or Activity in H4 […] Cells. [Related pubchem assays: 1829 (Project Summary), 1814 (Primary HTS)]; format: functional
[3] = Luminescence Cell-Based Dose Response to Identify Activators of Luciferase Translation or Activity in H4-C Neuroglioblastoma Cells. [Related pubchem assays: 1829 (Project Summary), 1814 (Primary HTS)]; format: functional
[4] = Luminescence Cell-Based Dose Confirmation to Identify Activators of 5'UTR Stem-Loop Driven Alpha-Synuclein mRNA Translation in H4 Neuroglioblastoma Cells. [Related pubchem assays: 1829 (Project Summary), 1814 (Primary HTS)]; format: functional
[5] = Luminescence Cell-Based Dose Confirmation HTS to Identify Activators of 5'UTR Stem-Loop Driven Alpha-Synuclein mRNA Translation in H4 Neuroglioblastoma Cells. [Related pubchem assays: 1829 (Project Summary), 1814 (Primary HTS)]; format: functional
H4 = test: Luminescence Cell-Based Dose Response HTS to Identify Activators of 5'UTR Stem-Loop Driven Prion Protein mRNA Translation in H4 Neuroglioblastoma Cells. [Related pubchem assays: 1829 (Project Summary), 1814 (Primary HTS)]; format: functional; details: Homo sapiens
[6] = biological target: T1, Heat shock factor protein 1 (Mus musculus, UniProt P38532); test: enhancement of HSF1-driven luciferase signal – cell-based, NIH3T3, luminescence, dose retest, confirmation (AID 435004); format: functional;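 note: stress induced by proteasome inhibitor MG132 added 30 min after compound; luciferase reporter driven by HSF1 response element in NIH3T3 cells; actives raise luminescence as potentiators of the MG132 stress response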
T1 sequence (P38532 whole entry): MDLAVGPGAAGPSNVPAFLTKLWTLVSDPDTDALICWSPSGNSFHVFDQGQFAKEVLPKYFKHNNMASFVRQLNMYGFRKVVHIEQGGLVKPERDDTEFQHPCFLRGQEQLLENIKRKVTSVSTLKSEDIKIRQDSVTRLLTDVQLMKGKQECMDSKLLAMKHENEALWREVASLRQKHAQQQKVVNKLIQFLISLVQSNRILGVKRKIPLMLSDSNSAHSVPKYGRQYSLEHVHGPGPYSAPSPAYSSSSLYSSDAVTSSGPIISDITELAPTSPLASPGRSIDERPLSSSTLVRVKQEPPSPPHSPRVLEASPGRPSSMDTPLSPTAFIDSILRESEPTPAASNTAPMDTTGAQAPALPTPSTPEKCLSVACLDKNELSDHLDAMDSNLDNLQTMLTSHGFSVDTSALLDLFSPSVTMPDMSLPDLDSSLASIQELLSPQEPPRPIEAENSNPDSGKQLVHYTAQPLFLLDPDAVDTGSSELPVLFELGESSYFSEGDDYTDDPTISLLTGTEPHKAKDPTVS

[7] = Luminescence-based cell-based high throughput dose response assay to identify activators of the DAF-12 from the parasite S. stercoralis (ssDAF-12).; format: functional
[8] = biological target: T2, Oxysterols receptor LXR-beta (Homo sapiens, UniProt P55055); test: LXR agonists, Gal4 luciferase reporter, dose response, counter-screen for ssDAF-12 agonist project, cell-based, luminescence, HEK293, S. stercoralis campaign (AID 720737); format: functional; details: read-out: IC50 (the source's name)
T2 sequence (P55055 whole entry): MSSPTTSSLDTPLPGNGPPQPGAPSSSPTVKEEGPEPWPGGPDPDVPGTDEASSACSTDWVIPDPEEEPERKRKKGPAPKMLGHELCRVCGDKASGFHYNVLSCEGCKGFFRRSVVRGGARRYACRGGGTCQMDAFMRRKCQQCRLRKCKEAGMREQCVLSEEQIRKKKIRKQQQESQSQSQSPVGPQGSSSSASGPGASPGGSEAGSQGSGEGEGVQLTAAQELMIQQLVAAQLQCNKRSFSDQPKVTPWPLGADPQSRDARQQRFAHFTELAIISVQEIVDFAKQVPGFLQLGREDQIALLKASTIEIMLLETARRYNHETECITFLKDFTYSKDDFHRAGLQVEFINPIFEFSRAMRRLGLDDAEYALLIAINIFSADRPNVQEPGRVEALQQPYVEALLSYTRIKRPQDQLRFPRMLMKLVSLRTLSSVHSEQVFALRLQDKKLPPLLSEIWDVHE

Aminopeptidase N = biological target: T3, Aminopeptidase N (Plasmodium falciparum FcB1/Columbia, UniProt O96935); test: malaria alanyl aminopeptidase activity blockers – biochemical, fluorogenic H-Leu-NHMec substrate, 1536-well (AID 1445); design: species or system Plasmodium falciparum 3D7, 3D7
T3 sequence (O96935 whole entry): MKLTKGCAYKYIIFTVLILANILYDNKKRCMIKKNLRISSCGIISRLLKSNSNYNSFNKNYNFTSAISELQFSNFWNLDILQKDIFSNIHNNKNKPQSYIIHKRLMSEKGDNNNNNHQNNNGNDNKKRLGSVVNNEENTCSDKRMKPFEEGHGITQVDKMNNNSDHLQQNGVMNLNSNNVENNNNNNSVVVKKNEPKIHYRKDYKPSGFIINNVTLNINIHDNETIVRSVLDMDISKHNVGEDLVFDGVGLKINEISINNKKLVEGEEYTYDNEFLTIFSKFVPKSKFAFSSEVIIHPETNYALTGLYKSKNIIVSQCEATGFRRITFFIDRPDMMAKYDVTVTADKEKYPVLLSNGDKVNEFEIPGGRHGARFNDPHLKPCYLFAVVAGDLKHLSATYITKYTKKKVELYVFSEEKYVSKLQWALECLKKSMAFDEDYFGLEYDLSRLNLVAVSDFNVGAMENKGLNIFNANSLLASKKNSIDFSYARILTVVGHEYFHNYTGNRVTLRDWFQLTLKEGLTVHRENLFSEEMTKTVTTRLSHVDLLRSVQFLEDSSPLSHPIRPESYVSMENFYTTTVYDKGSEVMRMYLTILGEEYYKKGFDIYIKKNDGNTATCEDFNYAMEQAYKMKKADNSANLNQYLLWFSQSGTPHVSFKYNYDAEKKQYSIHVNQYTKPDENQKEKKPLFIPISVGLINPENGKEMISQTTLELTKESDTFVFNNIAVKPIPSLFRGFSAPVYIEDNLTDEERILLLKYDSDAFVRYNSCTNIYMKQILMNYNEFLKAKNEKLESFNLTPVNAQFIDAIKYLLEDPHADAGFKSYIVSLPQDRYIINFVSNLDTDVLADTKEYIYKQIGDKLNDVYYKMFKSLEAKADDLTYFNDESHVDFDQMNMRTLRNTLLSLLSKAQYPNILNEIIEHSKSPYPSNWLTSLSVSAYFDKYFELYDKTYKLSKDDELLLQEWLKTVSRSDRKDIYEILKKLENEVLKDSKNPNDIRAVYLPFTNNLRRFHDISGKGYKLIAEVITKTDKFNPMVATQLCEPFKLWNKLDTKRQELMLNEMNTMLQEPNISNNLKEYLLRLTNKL

INS1 = test: INS-1E survival protection against cytokine death – cell-based, luminescence, retest, dose response (AID 449756); format: functional; details: Rattus norvegicus;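 note: cell death triggered by IL-1 beta plus TNF-alpha plus IFN-gamma mixture; protective hits raise ATP signal compared with cytokine alone wells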
Fatty acid synthase [9] = biological target: T4, Fatty acid synthase (Homo sapiens, UniProt P49327); test: inhibition of human FAS-TE enzyme activity – biochemical, endpoint fluorescence intensity, uHTS hits, dose response (AID 624327); format: functional;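 note: fluorescence from hydrolysis of an O-methyl fluorescein acyl ester substrate by the enzyme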
Fatty acid synthase [10] = biological target: T4, Fatty acid synthase; test: inhibition of human FAS-TE enzyme activity – biochemical, kinetic fluorescence intensity, dose response (AID 624326); format: functional;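 note: rate of fluorescence rise from hydrolysis of a fluorogenic O-methyl fluorescein ester substrate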
[11] = biological target: T5, Sentrin-specific protease 8 (Homo sapiens, UniProt Q96LD8); format: functional
T5 sequence (Q96LD8 whole entry): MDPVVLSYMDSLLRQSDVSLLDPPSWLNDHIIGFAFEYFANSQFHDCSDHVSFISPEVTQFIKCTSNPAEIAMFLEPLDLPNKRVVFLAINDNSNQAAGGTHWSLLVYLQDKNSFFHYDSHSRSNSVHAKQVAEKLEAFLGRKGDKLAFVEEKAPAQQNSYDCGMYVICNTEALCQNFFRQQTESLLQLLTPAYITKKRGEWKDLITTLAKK

[12] = biological target: T5, Sentrin-specific protease 8; format: functional; remark: listed apart in the source
Caspase-6 = biological target: T6, Caspase-6 (Homo sapiens, UniProt P55212); test: inhibition of CASP6 peptide cleavage – biochemical, VEID-R110 fluorescence, cherry-pick, dose response (AID 720632)
T6 sequence (P55212 whole entry): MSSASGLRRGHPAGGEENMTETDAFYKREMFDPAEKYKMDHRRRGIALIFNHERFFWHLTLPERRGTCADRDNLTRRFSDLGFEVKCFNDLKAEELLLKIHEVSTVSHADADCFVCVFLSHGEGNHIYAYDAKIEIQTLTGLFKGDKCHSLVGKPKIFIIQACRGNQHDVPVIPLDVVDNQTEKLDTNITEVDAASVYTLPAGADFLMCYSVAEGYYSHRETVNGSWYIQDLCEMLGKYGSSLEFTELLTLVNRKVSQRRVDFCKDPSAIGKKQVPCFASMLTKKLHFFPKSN

[13] = HPDE-C7 pancreatic duct cell viability loss – fluorescence, HTS (AID 430); format: functional, cell-based; details: Homo sapiens
[14] = microbe, parasite or virus in culture; format: functional; details: Mycobacterium tuberculosis
[15] = viability loss of HPDE-C7K cells – cell-based, fluorescence, HTS, primary screen (AID 431); format: functional; details: Homo sapiens
[16] = biological target: FAD-linked sulfhydryl oxidase ALR (Homo sapiens, UniProt P55789); test: ALR-catalysed DTT oxidation blockers – biochemical, H2O2 detection, luminescence, cherry-pick, dose response (AID 493248)
[17] = biological target: T7, DNA repair protein RAD52 homolog (Homo sapiens, UniProt P43351); format: functional, biochemical
T7 sequence (P43351 whole entry): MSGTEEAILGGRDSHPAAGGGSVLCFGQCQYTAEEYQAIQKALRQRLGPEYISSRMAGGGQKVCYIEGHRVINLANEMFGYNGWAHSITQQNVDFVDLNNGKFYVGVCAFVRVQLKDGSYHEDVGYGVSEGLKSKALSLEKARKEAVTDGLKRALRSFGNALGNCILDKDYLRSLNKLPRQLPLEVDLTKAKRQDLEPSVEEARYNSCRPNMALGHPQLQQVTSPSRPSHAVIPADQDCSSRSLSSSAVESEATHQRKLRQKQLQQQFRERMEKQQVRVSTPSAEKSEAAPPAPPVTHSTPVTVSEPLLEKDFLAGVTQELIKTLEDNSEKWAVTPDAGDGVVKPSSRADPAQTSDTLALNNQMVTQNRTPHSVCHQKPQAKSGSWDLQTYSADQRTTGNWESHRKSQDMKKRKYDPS

T4 sequence (P49327 whole entry): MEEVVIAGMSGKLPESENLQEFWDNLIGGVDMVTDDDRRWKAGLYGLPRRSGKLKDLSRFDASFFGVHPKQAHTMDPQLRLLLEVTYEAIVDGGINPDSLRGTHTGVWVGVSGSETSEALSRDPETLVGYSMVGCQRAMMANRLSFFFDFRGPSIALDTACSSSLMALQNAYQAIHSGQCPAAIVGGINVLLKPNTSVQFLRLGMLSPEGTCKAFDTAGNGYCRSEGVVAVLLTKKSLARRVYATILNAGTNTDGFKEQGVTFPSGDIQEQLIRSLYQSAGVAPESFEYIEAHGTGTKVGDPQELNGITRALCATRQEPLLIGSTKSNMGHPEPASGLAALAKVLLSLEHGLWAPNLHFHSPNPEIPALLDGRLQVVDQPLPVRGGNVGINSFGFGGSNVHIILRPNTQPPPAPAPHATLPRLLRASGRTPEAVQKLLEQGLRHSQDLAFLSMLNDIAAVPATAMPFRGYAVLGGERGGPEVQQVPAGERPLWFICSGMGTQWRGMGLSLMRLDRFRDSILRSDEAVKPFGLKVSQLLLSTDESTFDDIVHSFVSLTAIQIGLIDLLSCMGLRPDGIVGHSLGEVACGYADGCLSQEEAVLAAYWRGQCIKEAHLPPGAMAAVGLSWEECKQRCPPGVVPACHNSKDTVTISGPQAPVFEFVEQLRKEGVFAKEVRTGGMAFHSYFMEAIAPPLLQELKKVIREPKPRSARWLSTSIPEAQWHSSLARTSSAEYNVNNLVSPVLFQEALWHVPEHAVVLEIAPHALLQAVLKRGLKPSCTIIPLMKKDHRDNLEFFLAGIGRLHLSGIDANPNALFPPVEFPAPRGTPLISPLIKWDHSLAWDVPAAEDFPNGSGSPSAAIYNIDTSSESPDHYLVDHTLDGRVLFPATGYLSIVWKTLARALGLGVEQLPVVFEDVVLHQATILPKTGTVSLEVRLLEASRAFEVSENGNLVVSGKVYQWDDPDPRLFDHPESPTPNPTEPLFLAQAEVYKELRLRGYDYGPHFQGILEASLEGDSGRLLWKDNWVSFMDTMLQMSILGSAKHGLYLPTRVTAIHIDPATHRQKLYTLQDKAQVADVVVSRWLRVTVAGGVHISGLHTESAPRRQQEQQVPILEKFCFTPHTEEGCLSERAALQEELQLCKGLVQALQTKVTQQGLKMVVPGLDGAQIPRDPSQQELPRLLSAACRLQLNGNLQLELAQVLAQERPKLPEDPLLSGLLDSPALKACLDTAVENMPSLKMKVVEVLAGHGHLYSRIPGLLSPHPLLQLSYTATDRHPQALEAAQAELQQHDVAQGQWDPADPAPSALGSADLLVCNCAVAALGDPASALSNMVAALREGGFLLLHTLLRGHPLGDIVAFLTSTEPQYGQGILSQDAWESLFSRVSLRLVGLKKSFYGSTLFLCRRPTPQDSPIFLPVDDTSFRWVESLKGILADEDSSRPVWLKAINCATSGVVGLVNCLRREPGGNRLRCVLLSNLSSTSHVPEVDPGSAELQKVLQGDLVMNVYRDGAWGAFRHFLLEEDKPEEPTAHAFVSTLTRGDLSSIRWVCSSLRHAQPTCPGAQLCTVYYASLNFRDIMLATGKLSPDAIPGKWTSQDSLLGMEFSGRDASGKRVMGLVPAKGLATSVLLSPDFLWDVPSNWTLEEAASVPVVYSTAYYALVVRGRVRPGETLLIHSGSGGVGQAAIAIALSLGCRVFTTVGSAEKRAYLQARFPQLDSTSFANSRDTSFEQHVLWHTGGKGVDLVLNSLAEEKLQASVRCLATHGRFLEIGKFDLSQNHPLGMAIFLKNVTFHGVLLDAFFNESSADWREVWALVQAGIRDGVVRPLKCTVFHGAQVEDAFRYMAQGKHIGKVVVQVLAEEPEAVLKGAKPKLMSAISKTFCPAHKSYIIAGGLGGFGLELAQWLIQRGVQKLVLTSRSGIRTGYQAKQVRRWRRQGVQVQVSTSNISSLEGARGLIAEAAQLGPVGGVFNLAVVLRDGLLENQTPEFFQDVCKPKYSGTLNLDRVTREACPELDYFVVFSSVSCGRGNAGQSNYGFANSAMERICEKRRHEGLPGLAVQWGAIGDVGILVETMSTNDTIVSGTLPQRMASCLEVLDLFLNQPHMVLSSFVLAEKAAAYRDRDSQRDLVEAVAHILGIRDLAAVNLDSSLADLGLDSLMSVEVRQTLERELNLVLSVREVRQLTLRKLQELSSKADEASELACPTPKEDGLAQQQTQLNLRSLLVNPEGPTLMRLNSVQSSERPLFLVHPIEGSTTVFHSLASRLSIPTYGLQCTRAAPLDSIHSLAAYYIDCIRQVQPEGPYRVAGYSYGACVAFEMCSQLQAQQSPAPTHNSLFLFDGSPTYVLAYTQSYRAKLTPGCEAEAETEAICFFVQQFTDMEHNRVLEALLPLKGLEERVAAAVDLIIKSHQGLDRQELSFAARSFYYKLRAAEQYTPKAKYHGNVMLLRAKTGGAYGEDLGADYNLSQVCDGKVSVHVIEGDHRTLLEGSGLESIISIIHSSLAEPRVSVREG
Chain of FAD-linked sulfhydryl oxidase ALR (P55789 whole entry): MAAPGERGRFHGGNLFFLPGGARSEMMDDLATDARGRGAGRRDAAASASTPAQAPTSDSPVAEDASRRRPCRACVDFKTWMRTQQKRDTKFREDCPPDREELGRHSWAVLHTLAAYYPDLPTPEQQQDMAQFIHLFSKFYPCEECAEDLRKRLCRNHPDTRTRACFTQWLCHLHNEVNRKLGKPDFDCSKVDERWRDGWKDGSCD

SMILES: Cc1nc2c(C(=O)N3CCCCC3)cnn2c(C)c1Cc1ccccc1F
- EC50 [1]: 0.57 µM (active)
- EC50 [2]: < 0.1 µM (active)
- EC50 [3]: 0.267 µM (active)
- EC50 [4]: > 12 µM (not active)

SMILES: O=C(C[n+]1cc(-c2ccc(F)cc2)n2c1CCC2)c1cccs1
- EC50 [1]: 1.06 µM (active)
- EC50 [5]: < 0.1 µM (active)
- EC50 [2]: 0.136 µM (inconclusive)
- EC50 (H4): 29.9 µM (inconclusive)
- EC50 [3]: > 12 µM (not active)
- EC50 [4]: 3.26 µM (active)

SMILES: CCC(C)Sc1nc2c3ccccc3nc-2c(O)n1C (configuration not stated)
- EC50 [6]: > 260 µM (inactive)
- IC50 [7]: > 67.5 µM (inactive)
- EC50 [8]: > 67.5 µM (inactive)

SMILES: O=C(c1ccc([N+](=O)[O-])cc1)N1CCOCC1
- IC50 [7]: > 67.4 µM (inactive)
- EC50 [8]: > 67.4 µM (inactive)

SMILES: O=C(CNC(=O)c1ccccc1)N/N=C/c1cc(Br)ccc1O
- IC50 (Aminopeptidase N): 22.6 µM (active)
- AC50 (INS1): 3.5 µM (active)
- IC50 (Fatty acid synthase [9]): 12.7 µM (active)
- IC50 (Fatty acid synthase [10]): 10.2 µM (active)

SMILES: Cc1[nH]cnc1CN1CCc2c(c3ccccc3n2C)C1=O [ALOSETRON HYDROCHLORIDE]
- IC50 [11]: 18.2 µM (active)
- IC50 [12]: 7.1 µM (active)
- AC50 (Caspase-6): 11.5 µM (active)

SMILES: CN(C)CCCN1c2ccccc2Sc2ccc(Cl)cc21 [CHLORPROMAZINE HYDROCHLORIDE]
- EC50 [13]: > 20 µM (not active)
- CC50 [14]: 26 µM (active)
- EC50 [15]: > 20 µM (not active)
- AC50 [16]: 1.01 µM (active)
- AC50 [17]: < 25.3 µM (active)
